Test: recombinant barcode read abundance after kanamycin selection (control-corrected) (log10(CPM+1)); higher = more efficient recombination; sequences stand for … in AGTGCAGAGAAAATCGGCCAGTTTTCTCTGCCTGCAGTCCGCATGCCGT…AGATTTATGCAGCGGACTGCCTTTCTCCCAAAGTGATAAACCGGACAGTATCATGGACCGGTTTTCCCGGTAATCCGTATTTGCAAGGTTGGTTTCACT; site = the 11-nt target
Method in brief: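 Each value is log10(CPM+1). It describes recombination efficiency, taken as averaged, control-corrected counts per million of barcodes at recombinant junctions. The pooled E. coli library paired targets with IS621 bridge RNA target-binding loops, was co-electroporated with a donor plasmid, and was plated twice on chloramphenicol/ampicillin LB agar (control) and twice on chloramphenicol/ampicillin/kanamycin containing 0.1 mM IPTG.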
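Also: IS621 recombinase and bridge RNA in Escherichia coli cells.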

“GTGGCTTCTTGGGTTCTAACCTGTTGCCT (site GAGGCTTCTAG)” and “GTGGCTTCTTGGGTTCTAACCTGTTGCCT (site GCGGCTTCTAG)” are within 0.2 log units of each other in “recombinant barcode read abundance (log10)” value: 0.128 for the first, 0.248 for the second.

Going from “GTGGCTTCTTGGGTTCTAACCTGTTGCCT (site GGGGCTTCTAG)” to “GTGGCTTCTTGGGTTCTAACCTGTTGCCT (site GTGGCTTCTAG)”, the “recombinant barcode read abundance (log10)” value rises from 0.132 to 0.389.

“GTGTACCCTTGGGTTCTAACCTGTTGCGG (site GTGTACCCTAC)” and “GTGTACCCTTGGGTTCTAACCTGTTGCGG (site GTGTACCCTCC)” are within 0.2 log units of each other in “recombinant barcode read abundance (log10)” value: 1.94 for the first, 1.93 for the second.

“GTGTACCCTTGGGTTCTAACCTGTTGCGG (site GTGTACCCTGC)” and “GTGTACCCTTGGGTTCTAACCTGTTGCGG (site GTGTACCCTTC)” are within 0.2 log units of each other in “recombinant barcode read abundance (log10)” value: 0.161 for the first, 0.253 for the second.

Going from “GTGTAGTCTTGGGTTCTAACCTGTTGCCG (site GTGTAGGCTCT)” to “GTGTAGTCTTGGGTTCTAACCTGTTGCCG (site GTGTAGTCTCG)”, the “recombinant barcode read abundance (log10)” value rises from 0.254 to 1.19.

Going from “GTGTCACCTTGGGTTCTAACCTGTTGCCT (site GTGTCAACTAG)” to “GTGTCACCTTGGGTTCTAACCTGTTGCCT (site GTGTCACCTAG)”, the “recombinant barcode read abundance (log10)” value rises from 0.205 to 1.52.

“GTGTCACCTTGGGTTCTAACCTGTTGCCT (site GTGTCAGCTAG)” and “GTGTCACCTTGGGTTCTAACCTGTTGCCT (site GTGTCATCTAG)” are within 0.2 log units of each other in “recombinant barcode read abundance (log10)” value: 0.00534 for the first, 0.091 for the second.

“GTGTCTCCTTGGGTTCTAACCTGTTGCCT (site ATGTCTCCTAG)” and “GTGTCTCCTTGGGTTCTAACCTGTTGCCT (site CTGTCTCCTAG)” are within 0.2 log units of each other in “recombinant barcode read abundance (log10)” value: 0.233 for the first, 0.103 for the second.

Going from “GTGTCTCCTTGGGTTCTAACCTGTTGCCT (site GTGTCTCCTAG)” to “GTGTCTCCTTGGGTTCTAACCTGTTGCCT (site TTGTCTCCTAG)”, the “recombinant barcode read abundance (log10)” value falls from 0.962 to 0.22.

Compared with “GTGTGAGCTTGGGTTCTAACCTGTTGCCG (site GTACGAGCTCG)”, “GTGTGAGCTTGGGTTCTAACCTGTTGCCG (site GTGTGAGCTCG)” is higher in “recombinant barcode read abundance (log10)” value: 0.269 for the first, 1.74 for the second.

Compared with “GTGTGTCCTTGGGTTCTAACCTGTTGCCT (site GTGTGTACTAG)”, “GTGTGTCCTTGGGTTCTAACCTGTTGCCT (site GTGTGTCCTAG)” is higher in “recombinant barcode read abundance (log10)” value: 0.0295 for the first, 1.31 for the second.

“GTGTGTCCTTGGGTTCTAACCTGTTGCCT (site GTGTGTGCTAG)” and “GTGTGTCCTTGGGTTCTAACCTGTTGCCT (site GTGTGTTCTAG)” are within 0.2 log units of each other in “recombinant barcode read abundance (log10)” value: 0.155 for the first, 0.108 for the second.

First: GTTACCGCTTGGGTTCTAACCTGTTGCCT (site GTAACCGCTAG)
Second: GTTACCGCTTGGGTTCTAACCTGTTGCCT (site GTCACCGCTAG)
The “recombinant barcode read abundance (log10)” value of the first is higher: 0.602 for the first, 0.345 for the second.

Going from “GTTACCGCTTGGGTTCTAACCTGTTGCCT (site GTGACCGCTAG)” to “GTTACCGCTTGGGTTCTAACCTGTTGCCT (site GTTACCGCTAG)”, the “recombinant barcode read abundance (log10)” value rises from 0.0865 to 1.64.

“GTTACGTCTTGGGTTCTAACCTGTTGCTT (site AGTACGTCTAA)” and “GTTACGTCTTGGGTTCTAACCTGTTGCTT (site GTTACGTCTAA)” are within 0.2 log units of each other in “recombinant barcode read abundance (log10)” value: 0.115 for the first, 0.285 for the second.

Compared with “GTTAGACCTTGGGTTCTAACCTGTTGCCT (site GTTAGACCTAG)”, “GTTAGACCTTGGGTTCTAACCTGTTGCCT (site TGCCTCTCTTA)” is lower in “recombinant barcode read abundance (log10)” value: 0.949 for the first, 0.0193 for the second.

Going from “GTTCAGCCTTGGGTTCTAACCTGTTGCCT (site GTCGAGCCTAG)” to “GTTCAGCCTTGGGTTCTAACCTGTTGCCT (site GTTCAGCCTAG)”, the “recombinant barcode read abundance (log10)” value rises from 0.0107 to 0.611.

Compared with “GTTCCAGCTTGGGTTCTAACCTGTTGCCT (site AGCAGCCCTCT)”, “GTTCCAGCTTGGGTTCTAACCTGTTGCCT (site GTTCCAGCTAG)” is higher in “recombinant barcode read abundance (log10)” value: 0.0192 for the first, 0.792 for the second.

“GTTCCATCTTGGGTTCTAACCTGTTGCCT (site GATCCATCTAG)” and “GTTCCATCTTGGGTTCTAACCTGTTGCCT (site GCTCCATCTAG)” are within 0.2 log units of each other in “recombinant barcode read abundance (log10)” value: 0.172 for the first, 0.28 for the second.

Compared with “GTTCCATCTTGGGTTCTAACCTGTTGCCT (site GGTCCATCTAG)”, “GTTCCATCTTGGGTTCTAACCTGTTGCCT (site GTTCCATCTAG)” is higher in “recombinant barcode read abundance (log10)” value: 0.216 for the first, 0.601 for the second.

Compared with “GTTCCGGCTTGGGTTCTAACCTGTTGCCT (site GTTACGGCTAG)”, “GTTCCGGCTTGGGTTCTAACCTGTTGCCT (site GTTCCGGCTAG)” is higher in “recombinant barcode read abundance (log10)” value: 0.139 for the first, 0.834 for the second.

Going from “GTTCCGGCTTGGGTTCTAACCTGTTGCCT (site GTTGCGGCTAG)” to “GTTCCGGCTTGGGTTCTAACCTGTTGCCT (site GTTTCGGCTAG)”, the “recombinant barcode read abundance (log10)” value rises from 0.145 to 0.373.

Going from “GTTCCTACTTGGGTTCTAACCTGTTGCCT (site GATCCTACTAG)” to “GTTCCTACTTGGGTTCTAACCTGTTGCCT (site GCTCCTACTAG)”, the “recombinant barcode read abundance (log10)” value falls from 0.215 to 0.00954.

“GTTCCTACTTGGGTTCTAACCTGTTGCCT (site GGTCCTACTAG)” and “GTTCCTACTTGGGTTCTAACCTGTTGCCT (site GTTCCTACTAG)” are within 0.2 log units of each other in “recombinant barcode read abundance (log10)” value: 0.133 for the first, 0.328 for the second.

“GTTGCCACTTGGGTTCTAACCTGTTGCCT (site GTAGCCACTAG)” and “GTTGCCACTTGGGTTCTAACCTGTTGCCT (site GTCGCCACTAG)” are within 0.2 log units of each other in “recombinant barcode read abundance (log10)” value: 0.137 for the first, 0.0124 for the second.

First: GTTGCCACTTGGGTTCTAACCTGTTGCCT (site GTGGCCACTAG)
Second: GTTGCCACTTGGGTTCTAACCTGTTGCCT (site GTTGCCACTAG)
The “recombinant barcode read abundance (log10)” value of the first is lower: 0.0918 for the first, 0.411 for the second.

Going from “GTTGGAACTTGGGTTCTAACCTGTTGCGT (site GTTGGAACTAC)” to “GTTGGAACTTGGGTTCTAACCTGTTGCGT (site GTTGGGACTAG)”, the “recombinant barcode read abundance (log10)” value falls from 2.05 to 0.312.

“GTTGGCGCTTGGGTTCTAACCTGTTGCCT (site GTAGGCGCTAG)” and “GTTGGCGCTTGGGTTCTAACCTGTTGCCT (site GTCGGCGCTAG)” are within 0.2 log units of each other in “recombinant barcode read abundance (log10)” value: 0.276 for the first, 0.125 for the second.

Compared with “GTTGGCGCTTGGGTTCTAACCTGTTGCCT (site GTGGGCGCTAG)”, “GTTGGCGCTTGGGTTCTAACCTGTTGCCT (site GTTGGCGCTAG)” is higher in “recombinant barcode read abundance (log10)” value: 0.0363 for the first, 0.841 for the second.

Going from “GTTGGGGCTTGGGTTCTAACCTGTTGCCT (site GTGGTGGCTAG)” to “GTTGGGGCTTGGGTTCTAACCTGTTGCCT (site GTTGGGGCTAG)”, the “recombinant barcode read abundance (log10)” value rises from 0.254 to 0.634.

First: GTTTAATCTTGGGTTCTAACCTGTTGCAT (site GTTTAATCTAT)
Second: GTTTAATCTTGGGTTCTAACCTGTTGCAT (site TGGGTCACTTA)
The “recombinant barcode read abundance (log10)” value of the first is higher: 0.343 for the first, 0.0197 for the second.

Compared with “GTTTGGACTTGGGTTCTAACCTGTTGCAG (site GCTTGGACTAT)”, “GTTTGGACTTGGGTTCTAACCTGTTGCAG (site GTTTGGACTCT)” is higher in “recombinant barcode read abundance (log10)” value: 0.153 for the first, 1.11 for the second.

Going from “GTTTGGACTTGGGTTCTAACCTGTTGCTG (site GTTTGGACTCA)” to “GTTTGGACTTGGGTTCTAACCTGTTGCTG (site GTTTGGACTTA)”, the “recombinant barcode read abundance (log10)” value falls from 1.06 to 0.195.

Compared with “TAAAAGACTTGGGTTCTAACCTGTTGCCT (site TAAAAGACTAG)”, “TAAAAGACTTGGGTTCTAACCTGTTGCCT (site TAAAAGCCTAG)” is lower in “recombinant barcode read abundance (log10)” value: 0.307 for the first, 0.0498 for the second.

“TAAAAGACTTGGGTTCTAACCTGTTGCCT (site TAAAAGGCTAG)” and “TAAAAGACTTGGGTTCTAACCTGTTGCCT (site TAAAAGTCTAG)” are within 0.2 log units of each other in “recombinant barcode read abundance (log10)” value: 0.311 for the first, 0.178 for the second.

“TAAAAGTCTTGGGTTCTAACCTGTTGCCT (site TAAAAGACTAG)” and “TAAAAGTCTTGGGTTCTAACCTGTTGCCT (site TAAAAGCCTAG)” are within 0.2 log units of each other in “recombinant barcode read abundance (log10)” value: 0.108 for the first, 0.0186 for the second.

Compared with “TAAAAGTCTTGGGTTCTAACCTGTTGCCT (site TAAAAGGCTAG)”, “TAAAAGTCTTGGGTTCTAACCTGTTGCCT (site TAAAAGTCTAG)” is higher in “recombinant barcode read abundance (log10)” value: 0.0795 for the first, 0.696 for the second.

Going from “TAAAGTACTTGGGTTCTAACCTGTTGCTT (site TAAAGTACTAA)” to “TAAAGTACTTGGGTTCTAACCTGTTGCTT (site TAACGTACTAA)”, the “recombinant barcode read abundance (log10)” value falls from 0.467 to 0.0583.

“TAAAGTACTTGGGTTCTAACCTGTTGCTT (site TAAGGTACTAA)” and “TAAAGTACTTGGGTTCTAACCTGTTGCTT (site TAATGTACTAA)” are within 0.2 log units of each other in “recombinant barcode read abundance (log10)” value: 0.017 for the first, 0.0546 for the second.

First: TAACACTCTTGGGTTCTAACCTGTTGCCT (site TAACACTCTAG)
Second: TAACACTCTTGGGTTCTAACCTGTTGCCT (site TCACAGTCTAG)
The “recombinant barcode read abundance (log10)” value of the first is higher: 2 for the first, 0.19 for the second.

Compared with “TAACAGTCTTGGGTTCTAACCTGTTGCGT (site TAACAGTCTAC)”, “TAACAGTCTTGGGTTCTAACCTGTTGCGT (site TAACCGTCTAT)” is lower in “recombinant barcode read abundance (log10)” value: 2.85 for the first, 0.246 for the second.

“TAACCGTCTTGGGTTCTAACCTGTTGCAT (site TAACAGTCTAC)” and “TAACCGTCTTGGGTTCTAACCTGTTGCAT (site TAACCGTCTAT)” are within 0.2 log units of each other in “recombinant barcode read abundance (log10)” value: 0.179 for the first, 0.286 for the second.

Going from “TAACCTACTTGGGTTCTAACCTGTTGCCT (site TAACCTACTAG)” to “TAACCTACTTGGGTTCTAACCTGTTGCCT (site TAACCTCCTAG)”, the “recombinant barcode read abundance (log10)” value falls from 0.442 to 0.055.
